# Like-named read-outs stand apart in the source and are kept apart here.
# Columns and labels:
# [1] = system: Key Grass and Sedge Weeds as well as Grass Crops; assay: Post-emergent Test II herbicidal activity (Table 6); assay type: in vivo; details: post-emergence, 336 h; for pest or weed control at 70 g/ha: application rate 70 g ai/ha; for pest or weed control at 140 g/ha: application rate 140 g ai/ha
# Method in brief: (§1)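 Post-emergence foliar spray, 187 L/ha, track sprayer at 43 cm above canopy. Carrier: acetone/water/IPA/DMSO/Atplus 411F/Triton X-155. Plants at 1st–2nd true leaf; subirrigated afterwards; % injury scored visually at 14 d.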
# [2] = system: Key Broadleaf Weed and Crop Species; assay: Post-emergent Test II herbicidal activity (Table 5); assay type: in vivo; details: post-emergence, 336 h, post-emergent, 14 days after application; for pest or weed control at 70 g/ha: 70 g ai/ha; for pest or weed control at 140 g/ha: 140 g ai/ha
# Method in brief: as §1
# [3] = Triticum aestivum, TRZSS (wheat), read-out: Visual Growth Reduction (%) 14 Days After Application, TRZSS
# [4] = CYPES: yellow nutsedge (Cyperus esculentus), read-out: Visual Growth Reduction (%) 14 Days After Application, CYPES
# [5] = DIGSA: crabgrass (Digitaria sanguinalis), read-out: Visual Growth Reduction (%) 14 Days After Application, DIGSA
# [6] = ECHCG: barnyardgrass (Echinochloa crus-galli), read-out: Visual Growth Reduction (%) 14 Days After Application, ECHCG
# [7] = ORYSA: rice (Oryza sativa), read-out: Visual Growth Reduction (%) 14 Days After Application, ORYSA
# [8] = SETFA: giant foxtail (Setaria faberi), read-out: Visual Growth Reduction (%) 14 Days After Application, SETFA
# [9] = SORVU: grain sorghum (Sorghum vulgare), read-out: Visual Growth Reduction (%) 14 Days After Application, SORVU
# [10] = ZEAMX: maize, corn (Zea mays), read-out: Visual Growth Reduction (%) 14 Days After Application, ZEAMX
# [11] = ABUTH: velvetleaf (Abutilon theophrasti), read-out: Visual Growth Reduction (%) 14 Days After Application ABUTH
# [12] = AMARE: redroot pigweed (Amaranthus retroflexus), read-out: Visual Growth Reduction (%) 14 Days After Application AMARE
# [13] = BRSNN: oilseed-rape, canola (Brassica napus), read-out: Visual Growth Reduction (%) 14 Days After Application BRSNN
# [14] = CHEAL: lambsquarters (Chenopodium album), read-out: Visual Growth Reduction (%) 14 Days After Application CHEAL
# [15] = EPHHL: wild poinsettia (Euphorbia heterophylla), read-out: Visual Growth Reduction (%) 14 Days After Application EPHHL
# [16] = HELAN: sunflower (Helianthus annuus), read-out: Visual Growth Reduction (%) 14 Days After Application HELAN
# [17] = VIOTR: wild pansy (Viola tricolor), read-out: Visual Growth Reduction (%) 14 Days After Application VIOTR
structure (smiles),measurement,setting,value
"C=Cc1c(N)nc(-c2ccc(C(F)(F)F)c(F)c2)nc1C(=O)OC [Compound 137, Methyl 6-amino-2-(3-fluoro-4-(trifluoromethyl)phenyl)-5-vinylpyrimidine-4-carboxylate]",pest or weed control at 70 g/ha,[1]; [3],0 to 29%
same,pest or weed control at 140 g/ha,[1]; [3],0 to 29%
same,pest or weed control at 70 g/ha,[1]; [4],45 to 59%
same,pest or weed control at 140 g/ha,[1]; [4],45 to 59%
same,pest or weed control at 70 g/ha,[1]; [5],0 to 29%
same,pest or weed control at 140 g/ha,[1]; [5],0 to 29%
same,pest or weed control at 70 g/ha,[1]; [6],0 to 29%
same,pest or weed control at 140 g/ha,[1]; [6],0 to 29%
same,pest or weed control at 70 g/ha,[1]; [7],0 to 29%
same,pest or weed control at 140 g/ha,[1]; [7],0 to 29%
same,pest or weed control at 70 g/ha,[1]; [8],0 to 29%
same,pest or weed control at 140 g/ha,[1]; [8],0 to 29%
same,pest or weed control at 70 g/ha,[1]; [9],0 to 29%
same,pest or weed control at 140 g/ha,[1]; [9],0 to 29%
same,pest or weed control at 70 g/ha,[1]; [10],0 to 29%
same,pest or weed control at 140 g/ha,[1]; [10],0 to 29%
same,pest or weed control at 70 g/ha,[2]; [11],75 to 84%
same,pest or weed control at 140 g/ha,[2]; [11],85 to 94%
same,pest or weed control at 70 g/ha,[2]; [12],0 to 29%
same,pest or weed control at 140 g/ha,[2]; [12],0 to 29%
same,pest or weed control at 70 g/ha,[2]; [13],0 to 29%
same,pest or weed control at 140 g/ha,[2]; [13],0 to 29%
same,pest or weed control at 70 g/ha,[2]; [14],0 to 29%
same,pest or weed control at 140 g/ha,[2]; [14],45 to 59%
same,pest or weed control at 70 g/ha,[2]; [15],0 to 29%
same,pest or weed control at 140 g/ha,[2]; [15],60 to 74%
same,pest or weed control at 70 g/ha,[2]; [16],45 to 59%
same,pest or weed control at 140 g/ha,[2]; [16],60 to 74%
same,pest or weed control at 70 g/ha,[2]; [17],0 to 29%
same,pest or weed control at 140 g/ha,[2]; [17],0 to 29%

# Source: US9113629B2, “4-amino-6-(4-substituted-phenyl)-picolinates and 6-amino-2-(4-substituted-phenyl)-pyrimidine-4-carboxylates and their use as herbicides” (DOW AGROSCIENCES LLC, priority 2013, dated 2015)
